The values below come from patent US8232271B2 (priority 2008, dated 2012).

Structures are written as SMILES.

The subject of one data set is HCV. Conditions: monotherapy; cited from earlier work.
Data set [1] concerns HCV replicon cells (2209-23). In words: HCV replicon assay (Renilla luciferase reporter). The format is cell-based, HCV genotype 1b. The following applies: Hepatitis C virus, 72 h; three days incubation. (In general: In antiviral work, replicon cells carry a viral genome segment that copies itself.)
Data set [2] concerns the target T1, HCV polymerase (NS5B570n-Con1) (Hepatitis C virus genotype 1b, UniProt Q9WMX2).
T1 construct: contains a 21 amino acid deletion at the C-terminus relative to the full-length HCV polymerase; 6-histidine (N); made in house; host or cells: E. coli BL21(DE) pLysS, plasmid pET17b
In words: HCV NS5B RNA polymerase activity assay. It counts as biochemical, HCV Con1 strain. How it is done:
The enzymatic activity of HCV polymerase (NS5B570n-Con1) was measured as the incorporation of radiolabeled nucleotide monophosphates into acid insoluble RNA products. Unincorporated radiolabeled substrate was removed by filtration and scintillant was added to the washed and dried filter plate containing radiolabeled RNA product. The amount of RNA product generated by NS5B570-Con1 at the end of the reaction was directly proportional to the amount of light emitted by the scintillant.
The N-terminal 6-histidine tagged HCV polymerase, derived from HCV Con1 strain, genotype 1b (NS5B570n-Con1) contains a 21 amino acid deletion at the C-terminus relative to the full-length HCV polymerase and was purified from E. coli strain BL21(DE) pLysS. The construct, containing the coding sequence of HCV NS5B Con1 (GenBank accession number AJ242654) was inserted into the plasmid construct pET17b, downstream of a T7 promoter expression cassette and transformed into E. coli. A single colony was grown overnight as a starter culture and later used inoculate 10 L of LB media supplemented with 100 μg/mL ampicillin at 37° C. Protein expression was induced by the addition of 0.25 mM isopropyl-β-D-thiogalactopyranoside (IPTG) when optical density at […] of the culture was between 0.6 and 0.8 and cells were harvested after 16 to 18 h at 30° C. NS5B570n-Con1 was purified to homogeneity using a three-step protocol including subsequent column chromatography on Ni-NTA, SP-Sepharose HP and Superdex 75 resins.
Each 50 μl enzymatic reaction contained 20 nM RNA template derived from the complementary sequence of the Internal Ribosome Entry Site (cIRES), 20 nM NS5B570n-Con1 enzyme, 0.5 μCi of tritiated UTP (Perkin Elmer catalog no. TRK-412; specific activity: 30 to 60 Ci/mmol; stock solution concentration from 7.5×10^-5 M to 20.6×10^-6 M), 1 μM each ATP, CTP, and GTP, 40 mM Tris-HCl pH 8.0, 40 mM NaCl, 4 mM DTT (dithiothreitol), 4 mM MgCl2, and 5 μl of compound serial diluted in DMSO. Reaction mixtures were assembled in 96-well filter plates (cat #MADVN0B, Millipore Co.) and incubated for 2 h at 30° C. Reactions were stopped by addition of 10% final (v/v) trichloroacetic acid and incubated for 40 min at 4° C. Reactions were filtered, washed with 8 reaction volumes of 10% (v/v) trichloroacetic acetic acid, 4 reaction volumes of 70% (v/v) ethanol, air dried, and 25 μl of scintillant (Microscint 20, Perkin-Elmer) was added to each reaction well.
The amount of light emitted from the scintillant was converted to counts per minute (CPM) on a Topcount® plate reader (Perkin-Elmer, Energy Range: Low, Efficiency Mode: Normal, Count Time: 1 min, Background Subtract: none, Cross talk reduction: Off).
Data was analyzed in Excel® (Microsoft®) and ActivityBase® (Idbs®). The reaction in the absence of enzyme was used to determine the background signal, which was subtracted from the enzymatic reactions. Positive control reactions were performed in the absence of compound, from which the background corrected activity was set as 100% polymerase activity. All data was expressed as a percentage of the positive control. The compound concentration at which the enzyme-catalyzed rate of RNA synthesis was reduced by 50% (IC50) was calculated by fitting
[formula] equation (i) to the data. where “Y” corresponds to the relative enzyme activity (in %), “% Min” is the residual relative activity at saturating compound concentration, “% Max” is the relative maximum enzymatic activity, “X” corresponds to the compound concentration, and “S” is the Hill coefficient (or slope).

A short description of another data set: in vitro. The following applies: human.

For `NC(=O)c1ncn([C@@H]2O[C@H](CO)[C@@H](O)[C@H]2O)n1` [ribavirin, 1-((2R,3R,4S,5R)-3,4-Dihydroxy-5-hydroxymethyl-tetrahydro-furan-2-yl)-1H-[1,2,4]triazole-3-carboxylic acid amide], in the data set on HCV, the “effect on serum levels of HCV-RNA” value is recorded as “does not lower serum levels of HCV-RNA” and the “patients with serum amino transferase levels reduced to normal” value is 40%.

Turning to `COc1cc(CNC(=O)[C@H]2CC[C@H](NS(C)(=O)=O)C2)c(-c2ccc[nH]c2=O)cc1C(C)(C)C` [Compound I-81, (1S,3S)-3-Methanesulfonylamino-cyclopentanecarboxylic acid 4-tert-butyl-5-methoxy-2-(2-oxo-1,2-dihydro-pyridin-3-yl)-benzylamide], the melting point (as a rule, the temperature, or range, at which the solid turns liquid) fell in the range of 158 to 160 °C. In addition, the IC50 (as a rule, the point on the concentration scale where inhibition reaches its midpoint) in data set [1] was found to be 238 nM. The molecule further gave a 50% inhibitory concentration (IC50) in data set [2] of 22 nM.

As to `COc1cc(CO)c(-c2ccc[nH]c2=O)cc1C(C)(C)C` [Compound I-2, 3-(5-tert-Butyl-2-hydroxymethyl-4-methoxy-phenyl)-1H-pyridin-2-one], the melting point lay within 215 to 216 °C. In data set [2], the IC50 was 1010 nM.

Regarding `COc1cc(CN(C2CCNCC2)S(C)(=O)=O)c(-c2ccc[nH]c2=O)cc1C(C)(C)C` [Compound I-57], the melting point lay within 205 to 208 °C. Further, in data set [2], the midpoint of inhibition, the IC50, lay at 57 nM.

Molecule `COc1cc(CNC(=O)c2cccc(NS(C)(=O)=O)c2)c(-c2ccc[nH]c2=O)cc1C(C)(C)C` [Compound I-63] registered a melting point of 259 to 260 °C. This molecule also gave a 50% inhibitory concentration (IC50) in data set [1] of 34 nM. For the same molecule, the IC50 in data set [2] is 12 nM. The CC50 in “in vitro” came out at 43700 nM.

As to `COc1cc(CN2CCCS2(=O)=O)c(-c2ccc[nH]c2=O)cc1C(C)(C)C` [Compound I-21, 3-[5-tert-Butyl-2-(1,1-dioxo-1λ^6-isothiazolidin-2-ylmethyl)-4-methoxy-phenyl]-1H-pyridin-2-one], the melting point lay within 109.4 to 126.9 °C. This molecule came in with a half-maximal inhibitory concentration (IC50) in data set [1] of 168 nM. The midpoint of inhibition in data set [2], the IC50, lay at 17 nM.

On to `COc1cc(CN2CCN(C(=O)OC(C)(C)C)S2(=O)=O)c(-c2ccc[nH]c2=O)cc1C(C)(C)C` [Compound I-61], for which the melting point lay within 125 to 127 °C. The molecule also yielded a half-inhibitory concentration (IC50) in data set [2] of 319 nM.

With `COc1cc(CN(CC2CCN(C(C)=O)C2)S(C)(=O)=O)c(-c2ccc[nH]c2=O)cc1C(C)(C)C` (stereo not shown) [Compound I-48, N-(1-acetyl-pyrrolidin-3-ylmethyl)-N-[4-tert-butyl-5-methoxy-2-(2-oxo-1,2-dihydro-pyridin-3-yl)-benzyl]-methanesulfonamide], the melting point was 196 to 198 °C. In data set [2], this molecule returned an IC50 of 84 nM.

Molecule `COc1cc(CN(c2ccccc2)S(C)(=O)=O)c(-c2ccc[nH]c2=O)cc1C(C)(C)C` [Compound I-34] gave a melting point of 226 to 227 °C. The molecule further displayed an IC50 in data set [1] of 936 nM. Moreover, half-maximal inhibition in data set [2] (IC50) required 13 nM. The molecule further gave a CC50 in the data set “in vitro” of 44200 nM.

Turning to `COc1cc(CN(CCO)S(C)(=O)=O)c(-c2ccc[nH]c2=O)cc1C(C)(C)C` [Compound I-35, N-[4-tert-butyl-5-methoxy-2-(2-oxo-1,2-dihydro-pyridin-3-yl)-benzyl]-N-(2-hydroxy-ethyl)-methanesulfonamide], the melting point fell in the range of 234.7 to 236 °C. The molecule also yielded a half-inhibitory concentration (IC50) in data set [2] of 26 nM.

In the case of `COc1cc(CN(Cc2ccccc2)S(C)(=O)=O)c(-c2ccc[nH]c2=O)cc1C(C)(C)C` [Compound I-26], the melting point lay in the range of 229 to 230 °C. In data set [2], half-maximal inhibition (IC50) was put at 145 nM.

With `COc1cc(C(=O)N2CCC(F)(F)CC2)c(-c2ccc[nH]c2=O)cc1C(C)(C)C` [Compound I-62], the melting point lay within 223 to 224 °C. Besides, in data set [2], half-maximal inhibition (IC50) was put at 955 nM.

For the molecule `COc1cc(CN(CC2CCNC2)S(C)(=O)=O)c(-c2ccc[nH]c2=O)cc1C(C)(C)C` (stereo not shown) [Compound I-31, N-[4-tert-Butyl-5-methoxy-2-(2-oxo-1,2-dihydro-pyridin-3-yl)-benzyl]-N-pyrrolidin-3-ylmethyl-methanesulfonamide], the melting point was in the range of 158 to 160 °C. Also, in data set [2], the midpoint of inhibition, the IC50, lay at 97 nM.

Turning to `COc1cc(CCNS(C)(=O)=O)c(-c2ccc[nH]c2=O)cc1C(C)(C)C` [Compound I-17, N-{2-[4-tert-butyl-5-methoxy-2-(2-oxo-1,2-dihydro-pyridin-3-yl)-phenyl]-ethyl}-methanesulfonamide], the melting point lay in the range of 219.3 to 222.4 °C. In data set [2], this molecule displayed a concentration for half-maximal inhibition (IC50) of 280 nM.

`CCN(Cc1cc(OC)c(C(C)(C)C)cc1-c1ccc[nH]c1=O)S(C)(=O)=O` [Compound I-27] gave a melting point of 245 to 246 °C. Moreover, the half-maximal inhibitory concentration (IC50) in data set [2] is 44 nM.

In turn, `COc1cc(CN2C(=O)CC[C@H]2CO)c(-c2ccc[nH]c2=O)cc1C(C)(C)C` [Compound I-72, 3-[5-tert-Butyl-2-((S)-2-hydroxymethyl-5-oxo-pyrrolidin-1-ylmethyl)-4-methoxy-phenyl]-1H-pyridin-2-one] displayed a melting point of 146 to 148 °C. Moreover, inhibition in data set [2] was half-maximal at 77 nM (IC50).

Regarding `COc1cc(CNS(=O)(=O)c2ccccc2Cl)c(-c2ccc[nH]c2=O)cc1C(C)(C)C` [Compound I-87], the melting point lay within 231 to 232 °C. This molecule yielded an IC50 in data set [2] of 358 nM.

Consider `CC(=O)Nc1ccc(C(C)(C)C)cc1-c1ccc[nH]c1=O` [Compound I-8, N-[4-tert-butyl-2-(2-oxo-1,2-dihydro-pyridin-3-yl)-phenyl]-acetamide], for which the melting point was 259 to 260 °C. The same molecule displayed a half-maximal inhibitory concentration (IC50) in data set [2] of 8560 nM.

`COc1cc(CNC(=O)c2ccc(O)cc2)c(-c2ccc[nH]c2=O)cc1C(C)(C)C` [Compound I-38, N-[4-tert-Butyl-5-methoxy-2-(2-oxo-1,2-dihydro-pyridin-3-yl)-benzyl]-4-hydroxy-benzamide] came in with a melting point of 205 to 210 °C. The IC50 in data set [1] was determined as 310 nM. Moreover, half-maximal inhibition in data set [2] (IC50) was put at 16 nM. The molecule also had a CC50 in “in vitro” of 92900 nM.

Regarding `COc1cc(C(=O)N(C)CC#N)c(-c2ccc[nH]c2=O)cc1C(C)(C)C` [Compound I-66], the melting point lay in the range of 211 to 212 °C. In data set [2], the IC50 turned out to be 152 nM.

`COc1cc(CN2C(=O)CC(C)(C)CC2=O)c(-c2ccc[nH]c2=O)cc1C(C)(C)C` [Compound I-88] had a melting point of over 300 °C. Besides, half-maximal inhibition in data set [2] (IC50) was put at 52 nM.

The molecule `CCOC(=O)c1cc(OC)c(C(C)(C)C)cc1-c1ccc[nH]c1=O` [Compound I-54, 4-tert-Butyl-5-methoxy-2-(2-oxo-1,2-dihydro-pyridin-3-yl)-benzoic acid ethyl ester] came in with a melting point of 214 to 215 °C. Moreover, in data set [2], inhibition was half-maximal at 39 nM (IC50).
